Converted amounts (≈) assume the structure as drawn. Like-named read-outs stand apart in the source and are kept apart here. Where a SMILES comes first, the peptide text is derived from it. Where no end group is shown, it is not given here.
Key:
[1] = tested on: P. aeruginosa strain PAO1; conditions: for MIC PAO1: PAO1, 16 h
Escherichia coli DH5a [2] = test: microbe, parasite or virus in culture; conditions: 16 h
[3] = tested on: Enterococcus faecalis ATCC29212; test: microbe, parasite or virus in culture; conditions: ATCC29212, 16 h
[4] = tested on: P. aeruginosa strain PAO1; test: microbe, parasite or virus in culture; conditions: Pseudomonas aeruginosa, PAO1, 16 h, read-out: MIC for PAO1
[5] = tested on: P. aeruginosa strain PA14; test: microbe, parasite or virus in culture; conditions: Pseudomonas aeruginosa
[6] = tested on: Serratia marcescens ATCC39006; test: microbe, parasite or virus in culture; conditions: ATCC39006, 16 h
[7] = tested on: P. aeruginosa strain PA14; conditions: for MIC PA14: PA14, 16 h; for MIC for PA14: PA14, 18 h
[8] = tested on: Pseudomonas aeruginosa strain PAO1; test: Initial susceptibility testing at a fixed concentration; assay type: cell-based; parameters: key: Tick (✓) represents OD600 comparable to no-growth control; cross (✗) represents OD600 comparable to growth control without any peptide; conditions: 256 μg mL−1 of peptide, overnight incubation, OD600 compared with growth and no-growth controls
P. aeruginosa [9] = tested on: P. aeruginosa
[10] = tested on: Serratia marcescens ATCC39006; conditions: ATCC39006, 16 h
Escherichia coli DH5a [11] = conditions: 16 h
[12] = tested on: Methicillin-resistant Staphylococcus aureus MRSA15; conditions: Table 4; broth microdilution in MH medium, 37 °C, 16 h
P. aeruginosa [13] = test: Drug synergism assay; assay type: cell-based, Pseudomonas aeruginosa; conditions: P2a combined with ciprofloxacin, checkerboard in MH medium, 37 °C, 16 h; synergy threshold 0.5; strain not stated
Experimental: measured and 15 µL of thiazolyl blue tetrazolium bromide (MTT; 1 mg/mL stock solution in water; Acros) was added to each well of the plate. The MIC was defined as the lowest concentration of the compound with a colourless well indicating no bacterial growth and the results cross-checked with OD600 reading. Each sample was run in triplicate on the same plate. Polymyxin B or ciprofloxacin or both were used as positive controls to ensure comparability of results across different experiments.
Bacterial culture was quantified by measuring the OD600, medium exchanged to MH-medium and culture diluted to OD600 of 0.022 in MH-medium. Stock solution of compound A was diluted to twice the starting concentration in MH medium. […] The next day, OD600 of the microtiter plate was measured and 15 µL of thiazolyl blue tetrazolium bromide (MTT; 1 mg/mL stock solution in water) was added to each well of the plate to cross-check the OD600 readings. […]
150 µL of the solution was added to 96-well plate (3 wells per bacterium) as well as 150 µL of MH medium as a negative control (further 3 wells per bacterium). The media were inoculated with 4 µL of the diluted bacterial solution and incubated in a plate reader at 37◦C for 16 h and absorption at 482 nm (Abs482) and 600 nm (OD600) was continuously measured throughout the incubation. […]

[14] = tested on: Enterococcus faecalis ATCC29212; conditions: ATCC29212, 16 h
[15] = tested on: PAO1 strain containing plasmid pUCP20, which encodes a β-lactamase; test: MIC determination using broth microdilution method; assay type: cell-based, Pseudomonas aeruginosa
[16] = tested on: Klebsiella pneumoniae CK1; conditions: CK1, 16 h
[17] = human serum 100 µL in 400 µL MES buffer (pH 6, 50 mM), 37 °C, protein precipitated with 1:1 DMSO:ethanol, HPLC at 220 nm, caffeine standard; Fig. 5b, values not given
[18] = tested on: Burkholderia thailandensis E264; conditions: Table 4; broth microdilution in MH medium, 37 °C, 16 h
[19] = Background stability in PBS buffer; assay type: physicochemical; conditions: PBS buffer pH 7.4 (50 mM), 37 °C, HPLC at 280 nm, Fig. 5a; values not given

O=C(O)c1cn(C2CC2)c2cc(N3CCNCC3)c(F)cc2c1=O [Ciprofloxacin, ciprofloxacin]
MIC for PAO1 ([1]; Table 3, data combined from multiple experiments, standard medium): 0.38 µM
PAO1 MIC ([1]; Table S5, altered linking region between peptide and cephalosporin): 0.125 µg/mL
MIC (Escherichia coli DH5a [2]): 0.0078 µg/mL (≈ 0.0235 µM)
MIC [3]: 0.5 µg/mL (≈ 1.51 µM)
MIC [4]: 0.125 µg/mL (≈ 0.377 µM)
MIC ([5]; PA14, 16 h, read-out: MIC for PA14): 0.0625 µg/mL
MIC ([5]; PA14, read-out: MIC for PA14): 0.19 µM
MIC [6]: 0.0625 µg/mL (≈ 0.189 µM)
PA14 MIC ([7]; Table S5): 0.0625 µg/mL

C[C@@H]1NC(=O)[C@H](Cc2c[nH]c3ccccc23)NC(=O)[C@H](CCCCN)NC(=O)[C@@H](NC(=O)[C@@H](N)Cc2ccccc2)CSCCc2cc(nc(NCCCc3ccccc3)n2)CCSC[C@@H](C(=O)N[C@@H](CCCCN)C(=O)N[C@@H](CCCCN)C(N)=O)NC(=O)[C@H](Cc2c[nH]c3ccccc23)NC(=O)[C@H](CCCCN)NC(=O)[C@H](Cc2ccccc2)NC1=O [P2-1] (HELM PEPTIDE1{F.C.K.W.A.F.K.W.C.K.K.[am]}|CHEM1{[c1ccc(CCCNc2nc(CC[*:1])cc(CC[*:2])n2)cc1]}$PEPTIDE1,CHEM1,2:R3-1:R1|PEPTIDE1,CHEM1,9:R3-1:R2$$$V2.0)
MIC PAO1 [1]: 16 µg/mL (≈ 9.2 µM)
Inh (inhibition) [8]: ✓
MIC of peptide-staple combinations (heat map) (P. aeruginosa [9]): best activity
MIC (P. aeruginosa [9]; 18 h): 8 to 16 µg/mL
MIC PA14 [7]: 16 µg/mL (≈ 9.2 µM)

FAKWAFKWLKK-NH2 [P2a, reference compound]
MIC [10]: ≥ 64 µg/mL
PAO1 MIC ([1]; PAO1, 18 h): 11 µM
PAO1 MIC ([1]; Table S4, cephalosporin-based staple 8 at different positions): 16 µg/mL
Inh (inhibition) [8]: ✗
MIC (Escherichia coli DH5a [11]): 4 µg/mL
MIC PA14 [7]: 64 µg/mL
PA14 MIC ([7]; Table S3, initial MIC values): 32 µg/mL
PA14 MIC ([7]; Table S4): 22 µM
MIC [12]: 32 µg/mL
fractional inhibitory concentration index (P. aeruginosa [13]): 0.75
MIC [14]: ≥ 64 µg/mL
cell growth inhibition in strain with plasmid versus without ([15]; OD600 growth curve, triplicate, Fig. 4b): no difference in cell growth inhibition

CC(=O)OCC1=C(C(=O)O)N2C(=O)[C@@H](NC(=O)CCCNc3nc4cc(n3)CCSC[C@H](NC(=O)[C@@H](N)Cc3ccccc3)C(=O)N[C@@H](CCCCN)C(=O)N[C@@H](Cc3c[nH]c5ccccc35)C(=O)N[C@@H](C)C(=O)N[C@@H](Cc3ccccc3)C(=O)N[C@@H](CCCCN)C(=O)N[C@@H](Cc3c[nH]c5ccccc35)C(=O)N[C@H](C(=O)N[C@@H](CCCCN)C(=O)N[C@@H](CCCCN)C(N)=O)CSCC4)[C@H]2SC1 [P2-8]
MIC [10]: ≥ 64 µg/mL
MIC [16]: ≥ 64 µg/mL
MIC for PAO1 ([1]; PAO1, 18 h): > 33 µM
MIC (Escherichia coli DH5a [11]): 32 µg/mL (≈ 16.3 µM)
serum stability [17]: improved stability over unstapled P2a
MIC for PA14 [7]: > 33 µM
MIC [12]: 64 µg/mL (≈ 32.6 µM)
MIC [18]: ≥ 64 µg/mL
MIC [14]: 2 µg/mL (≈ 1.02 µM)

C[C@H](NC(=O)[C@H](Cc1c[nH]c2ccccc12)NC(=O)[C@H](CCCCN)NC(=O)[C@H](CS)NC(=O)[C@@H](N)Cc1ccccc1)C(=O)N[C@@H](Cc1ccccc1)C(=O)N[C@@H](CCCCN)C(=O)N[C@@H](Cc1c[nH]c2ccccc12)C(=O)N[C@@H](CS)C(=O)N[C@@H](CCCCN)C(=O)N[C@@H](CCCCN)C(N)=O [P2] (H-FCKWAFKWCKK-NH2)
MIC PAO1 [1]: 32 µg/mL (≈ 21.7 µM)
Inh (inhibition) [8]: ✗
MIC PA14 [7]: 32 µg/mL (≈ 21.7 µM)

CCCCCCCC(=O)NCC(=O)N[C@H]1CSCCc2cc(nc(NCCCc3ccccc3)n2)CCSC[C@@H](C(=O)N[C@@H](CC(C)C)C(N)=O)NC(=O)[C@H](CCCCN)NC(=O)[C@H](CCCCN)NC(=O)[C@H]([C@@H](C)CC)NC(=O)[C@H](Cc2ccccc2)NC(=O)[C@H](CCCCN)NC(=O)[C@H](CC(C)C)NC1=O [P5-1] (HELM PEPTIDE1{[CCCCCCCC(=O)[*:2]].G.C.L.K.F.I.K.K.C.L.[am]}|CHEM1{[c1ccc(CCCNc2nc(CC[*:1])cc(CC[*:2])n2)cc1]}$PEPTIDE1,CHEM1,3:R3-1:R1|PEPTIDE1,CHEM1,10:R3-1:R2$$$V2.0)
Inh (inhibition) [8]: ✗

C[C@@H]1NC(=O)[C@H](Cc2c[nH]c3ccccc23)NC(=O)[C@H](CCCCN)NC(=O)[C@@H](NC(=O)[C@@H](N)Cc2ccccc2)CSCCc2cc(nc(NCCCC(=O)N[C@@H]3C(=O)N4C(C(=O)O)C(COC(=O)N5CCN(c6cc7c(cc6F)c(=O)c(C(=O)O)cn7C6CC6)CC5)=CS[C@H]34)n2)CCSC[C@@H](C(=O)N[C@@H](CCCCN)C(=O)N[C@@H](CCCCN)C(N)=O)NC(=O)[C@H](Cc2c[nH]c3ccccc23)NC(=O)[C@H](CCCCN)NC(=O)[C@H](Cc2ccccc2)NC1=O (stereo partly shown) [P2-10]
MIC [10]: 16 µg/mL (≈ 7.03 µM)
MIC [16]: ≥ 64 µg/mL
MIC for PAO1 ([1]; PAO1, 18 h): 7.0 µM
PAO1 MIC ([1]; Table S3, initial MIC values): 16 µg/mL
MIC for PAO1 after adding β-lactamase ([1]; medium supplemented with 1 nM recombinant β-lactamase): 2 µg/mL
background hydrolysis rate mediated by buffer only [19]: significantly lower than when β-lactamase was present
MIC (Escherichia coli DH5a [11]): 1 µg/mL (≈ 0.439 µM)
serum stability [17]: improved stability over unstapled P2a
MIC for PA14 [7]: 7.0 µM
PA14 MIC ([7]; Table S3, initial MIC values): 16 µg/mL
MIC [14]: 16 µg/mL (≈ 7.03 µM)
reduction in MIC in PAO1 with plasmid pUCP20 versus PAO1 ([15]; Fig. 4 and Table 3): one half

CC[C@H](C)[C@H](NC(=O)[C@H](CCCCN)NC(=O)[C@H](CCCCN)NC(=O)[C@H](CS)NC(=O)[C@H](CCCNC(=N)N)NC(=O)[C@H](CCCCN)NC(=O)[C@H](CCCNC(=N)N)NC(=O)[C@H](Cc1c[nH]c2ccccc12)NC(=O)[C@H](CCCCN)NC(=O)[C@H](CCCCN)NC(=O)[C@H](CS)NC(=O)[C@H](CC(C)C)NC(=O)[C@H](CCCNC(=N)N)NC(=O)[C@H](CCCNC(=N)N)NC(=O)[C@H](Cc1ccccc1)NC(=O)[C@@H](N)CCCNC(=N)N)C(N)=O [P4] (H-RFRRLCKKWRKRCKKI-NH2)
Inh (inhibition) [8]: ✗

Source: PMC12447755, “β-Lactamase cleavable antimicrobial peptide–drug conjugates” (Chemical Science, 2025)
